Test results taken from patent US20050054006A1, “Combinatorial fluorescent library based on the styryl scaffold” (New York University, priority 2003, published 2005).
Entries after “also recorded” stand apart in the source; their conditions may differ.

Experiments:
[1] = test system: dsDNA (double stranded DNA); test: Fluorescence change of the dye upon addition of DNA (fluorometric titration); assay type: binding
Experimental: (§1) With these compounds(FIG. 2), we observed the fluorescence intensity change upon addition of DNA. […] With a series of concentrations of dsDNA (double stranded DNA) added to compound 1, a linear increase in the fluorescence intensities was observed (FIG. 3). At the highest concentration of DNA tested (50 μg/mL), the increase in fluorescence emission reached up to 13.3 times higher than that of the free compound (FIG. 4). A blue shift of 17 nm in the emission wavelength upon DNA addition was observed, without a significant excitation wavelength shift. The structure of compound 1 includes a 2,4,5-trimethoxy group from the benzaldehyde moiety and a unique adamantyl pyridinium functionality.
Different trimethoxy isomers, 2 (3,4,5-trimethoxy) and 3 (2,3,4-trimethoxy) were synthesized to compare the positional effects of the methoxy groups in compound 1 (FIG. 2). While the responses of compound 2 and 3 to DNA treatment were simliar to that of compound 1, the fluorescence emission increase was much smaller in compound 2 (4.3 fold) and compound 3 (1.5 fold).

[2] = test system: UACC-62 human melanoma cells; test: Organelle localization in live cells by fluorescence microscopy; conditions: live UACC-62 cells; for LOCALIZATION: fluorescence microscope λex=405, 490, 570 nm, λem>510 nm
[3] = Spectrophotometric properties of the free styryl dyes; assay type: physicochemical
Experimental: as §1

[4] = Fluorescence excitation/emission of the styryl dye library compounds; assay type: physicochemical

| SMILES | LOCALIZATION [2] | EM(nm) ([4]; EX/EM peak no. 1) | EX(nm) ([4]; EX/EM peak no. 1) | other results |
| --- | --- | --- | --- | --- |
| COc1cc(OC)c(OC)cc1C=Cc1cc[n+](C23CC4CC(CC(C4)C2)C3)cc1.[Br-] [Compound 1] | – | – | – | blue shift in the emission wavelength upon DNA addition [1]: 17 nm; fluorescence intensity change upon addition of DNA [1]: strong fluorescence increase; increase in fluorescence emission versus free compound ([1]; highest DNA concentration tested, 50 μg/mL): 13.3 times; φF DNA ([1]; quantum yield, with DNA): 0.0032; φF DNA/φF free ([1]; ratio of quantum yields with DNA and free): 13.3; λem DNA (nm) ([1]; with DNA): 566 nm; nuclear localization / staining in live cells ([2]; compounds 1, 2, 3 at the same concentration): more selective staining of the nucleus of live cells; emission wavelength [3]: 583 nm; excitation wavelength [3]: 413 nm; λem free (nm) ([3]; free dye): 583 nm; λmax (nm) ([3]; free dye): 413 nm; linear fluorescence response range ([3]; in PBS, without self-quenching or wavelength shifts): 0.05 to 100 µM; φF free ([3]; quantum yield, free dye): 0.00024 |
| COc1ccc2c(ccc(C=Cc3cccc([N+](=O)[O-])c3)[n+]2C)c1.[I-] [Compound I21] | VESICLE; also recorded: NUCLEOLI | 620 | 390 nm | – |
| COc1ccc(C=Cc2cc[n+](C)cc2)c2ccccc12.[I-] [Compound A14] | MITO | 550 | 430(broad) nm | – |
| Cc1ccc[n+](C)c1C=CC=Cc1ccc(N(C)C)cc1.[I-] [Compound D37] | MITO | 650 | 470(broad) nm | – |
| COc1ccccc1C=Cc1cc[n+](C)c2ccccc12.[I-] [Compound G9] | MITO | 630 | 430 nm | – |
| COc1ccc(/C=C/c2cc[n+](C34CC5CC(CC(C5)C3)C4)cc2)cc1OC.[Br-] [Compound B11] | MITO | 540 | 340-440 nm | – |
| CCc1ccc(C=Cc2ccc(N(C)C)cc2)[n+](C)c1.[I-] [Compound E19] | MITO | 580 | 460(broad) nm | – |
| COc1ccc2c(ccc(C=CCc3ccccc3)[n+]2C)c1.[I-] [Compound I1] | MITO | 630 | 460 nm | – |
| Cc1cccc(/C=C/c2ccc(N(C)C)cc2)[n+]1C.[I-] [Compound L19] | MITO | 580 | 450 nm | – |
| COc1ccccc1C=Cc1ccc2ccccc2[n+]1C.[I-] [Compound H9] | MITO | 650 | – | – |
| COc1ccc2c(ccc(C=Cc3ccc(O)cc3)[n+]2C)c1.[I-] [Compound I16] | VESICLE; also recorded: NUCLEOLI | – | 360 nm | EM(nm) ([4]; EX/EM peak no. 2): 610 nm; EX(nm) ([4]; EX/EM peak no. 2): 360-460 nm |
| COc1ccc(C=Cc2cc[n+](C)c(-c3cc(C)ccn3)c2)cc1O.[I-] [Compound J15] | VESICLE | 530 | 340-440 nm | – |
| COc1ccc2ccccc2c1C=Cc1cc[n+](C)c2ccccc12.[I-] [Compound G23] | VESICLE | 610 | 450-500 nm | – |
| COc1cc(OC)c(OC)cc1C=Cc1cc[n+](C)c(-c2cc(C)ccn2)c1.[I-] [Compound J38] | MITO | 590 | 380-500 nm | – |
| C[n+]1ccc(C=Cc2c[nH]c3ccccc23)cc1.[I-] [Compound A24] | CYTO | 530 | 400) nm | – |
| C[n+]1ccc(C=Cc2ccccc2[N+](=O)[O-])c2ccccc21.[I-] [Compound G20] | MITO | 670 | 490-540 nm | – |
| C[n+]1c(C=Cc2cccc([N+](=O)[O-])c2)ccc2ccccc21.[I-] [Compound H21] | MITO and NUCLEOLI | 630 | 420-550 nm | – |
| COc1ccc2c(ccc(C=Cc3ccccc3Br)[n+]2C)c1.[I-] [Compound I3] | MITO | 640 | 480 nm | – |
| O=Cc1ccccc1C=Cc1cc[n+](C23CC4CC(CC(C4)C2)C3)cc1.[Br-] [Compound B25] | CYTO | 570 | 430 nm | – |
| O=[N+]([O-])c1ccc(C=Cc2cc[n+](C34CC5CC(CC(C5)C3)C4)cc2)cc1.[Br-] [Compound B22] | MITO | 600 | 410-420 nm | – |
| C[n+]1ccc(C=Cc2c(F)c(F)c(F)c(F)c2F)c2ccccc21.[I-] [Compound G31] | MITO and NUCLEOLI | 650 | 430 nm | – |
| COc1ccc2c(ccc(C=Cc3cccc4ccccc34)[n+]2C)c1.[I-] [Compound I32] | MITO and NUCLEI and NUCLEOLI | 610 | 360-440 nm | – |
| C[n+]1ccc(C=Cc2cccc3ccccc23)cc1.[I-] [Compound A32] | MITO and CYTO and VESICLE | 510 | 400 nm | – |
| COc1ccc(C=Cc2cccc(C)[n+]2C)cc1.[I-] [Compound L10] | MITO | 510 | 420 nm | – |
| COc1ccc2ccccc2c1/C=C/c1c(C)ccc[n+]1C.[I-] [Compound D23] | CYTO | 510 | 420(broad) nm | – |
